The values below come from patent US5140039A, “Aminomethyl-thiochroman compounds” (Abbott Laboratories, priority 1991, dated 1992).

One assay addresses alpha-2-receptor. Briefly: radioligand binding, [3H]-rauwolscine, rat cerebral cortices. The following applies: for pKi: rat cerebral cortices, [3H]-rauwolscine; for alpha-2-Selectivity Ki alpha-1/Ki alpha-2: ratio Ki alpha-1/Ki alpha-2. As for the experimental part:
(§1) The compounds were assessed for alpha-adrenergic receptor subtype selectivity by use of radioligand binding techniques as described previously (DeBernardis et.al. J. Med. Chem. 28 1398 (1985)). Affinity for the alpha-1-receptor was assessed using rat liver homogenates and the radioligand [^3 H]-prazosin; whereas for the alpha-2-receptor, rat cerebral cortices and the radioligand [^3 H]-rauwolscine were utilized. Results obtained from the binding studies are shown in Table 1 for a representative sample of compounds disclosed herein.

The target in a further assay is T1, alpha-1-receptor (Rattus norvegicus, UniProt P15823).
T1 construct: rat liver homogenates; from tissue; host or cells: rat liver homogenate
T1 sequence (P15823 1-515): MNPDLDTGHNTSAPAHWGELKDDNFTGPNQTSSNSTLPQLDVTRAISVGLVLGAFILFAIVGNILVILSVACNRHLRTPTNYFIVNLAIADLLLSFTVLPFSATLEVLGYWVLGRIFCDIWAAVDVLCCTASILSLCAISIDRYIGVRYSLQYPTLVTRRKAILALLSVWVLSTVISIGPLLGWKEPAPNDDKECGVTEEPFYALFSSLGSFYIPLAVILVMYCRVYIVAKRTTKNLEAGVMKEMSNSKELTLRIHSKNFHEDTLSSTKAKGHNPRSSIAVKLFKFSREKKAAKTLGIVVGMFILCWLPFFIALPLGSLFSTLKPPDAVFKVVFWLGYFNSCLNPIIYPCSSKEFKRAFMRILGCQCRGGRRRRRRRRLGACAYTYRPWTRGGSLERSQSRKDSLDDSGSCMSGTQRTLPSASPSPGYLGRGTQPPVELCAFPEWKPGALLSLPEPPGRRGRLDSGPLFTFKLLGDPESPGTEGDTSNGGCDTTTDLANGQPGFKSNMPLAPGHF
The assay can be described thus: radioligand binding, [3H]-prazosin, rat liver homogenates. As for the experimental part: as §1

pKi: −log10 of the molar value. Counter-ions that a name gives are not always drawn.

With `COc1ccc2c(c1)OCCC2CN(C)CCc1cccc(Cl)c1` (stereo not drawn) [Example 4, 4-((N-Methylamino)methyl-N-(2-(m-chlorophenyl)ethyl))-7-methoxy chroman hydrochloride], the pKi at alpha-2-receptor is 7.62; on alpha-1-receptor it was 6.59. For the same compound, the “alpha-2-Selectivity Ki alpha-1/Ki alpha-2” value with alpha-2-receptor is on record as 11.

In the case of `CCN(CCc1cccc(Cl)c1)CC1CCOc2cc(OC)ccc21` (stereo not drawn) [Example 6, 4-((N-Ethylamino)methyl-N-(2-(m-chlorophenyl)ethyl))-7-methoxy chroman hydrochloride], at alpha-2-receptor, the pKi is 7.47 and the “alpha-2-Selectivity Ki alpha-1/Ki alpha-2” value was 33. At alpha-1-receptor, this compound gave a pKi of 5.95.

With `COc1ccc2c(c1)OCCC2CN(C)CCc1cccs1` (stereo not drawn) [Example 7, 4-((N-Methylamino)methyl-N-(2-(2-thienyl)ethyl))-7-methoxy chroman hydrochloride], the pKi on alpha-2-receptor was 8.00; at alpha-1-receptor, 6.23. The “alpha-2-Selectivity Ki alpha-1/Ki alpha-2” value with alpha-2-receptor is given as 59.

With `COc1ccc2c(c1OC)SCCC2CN(C)CCc1cccs1` (stereo not drawn) [Example 13, 4-((N-Methylamino)methyl-N-(2-(2-thienyl)ethyl))-7,8-dimethoxy thiochroman hydrochloride], on alpha-2-receptor, the pKi was 8.52 and the “alpha-2-Selectivity Ki alpha-1/Ki alpha-2” value was found to be 32. Also, the negative logarithm of the Ki (pKi) on alpha-1-receptor was 7.02.

`COc1ccc2c(c1OC)OCCC2CN(C)CCc1cccc(F)c1` (stereo not drawn) [Example 25, 4-(N-Methylamino)methyl-N-(2-(m-fluorophenyl)ethyl))-7,8-dimethoxy chroman hydrochloride]: on alpha-2-receptor, the negative-log Ki (pKi) was 8.52 and the “alpha-2-Selectivity Ki alpha-1/Ki alpha-2” value is 183. Also, the pKi at alpha-1-receptor is 6.26.

Consider `COc1ccc2c(c1OC)OCCC2CN(C)CCc1cccs1` (stereo not drawn) [Example 26, 4-((N-Methylamino)methyl-N-(2-(2-thienyl)ethyl))-7,8-dimethoxy chroman hydrochloride], for which, on alpha-2-receptor, the pKi was 8.24 and the “alpha-2-Selectivity Ki alpha-1/Ki alpha-2” value turned out to be 1724. Besides, the pKi at alpha-1-receptor is 5.00.

With `CCN(CCc1cccs1)CC1CCOc2c1ccc(OC)c2C` (stereo not drawn) [Example 28, 4-((N-Ethylamino)methyl-N-(20(2-thienyl)ethyl)-7-methoxy-8-methylchroman hydrochloride], on alpha-2-receptor, the pKi was 7.47 and the “alpha-2-Selectivity Ki alpha-1/Ki alpha-2” value is on record as 29. Moreover, on alpha-1-receptor, the pKi was 6.00.
